Results taken from patent US20250262201A1, “COMPOUNDS AND METHODS USEFUL FOR STABILIZING PHENYLALANINE HYDROXYLASE MUTATIONS” (Agios Pharmaceuticals, Inc., priority 2022, published 2025).

Molecular target: T1, human PAH with the R408W mutation (Homo sapiens, UniProt P00439, R408W)
T1 construct: expressed in transfected cells
T1 sequence (P00439 1-452 R408W): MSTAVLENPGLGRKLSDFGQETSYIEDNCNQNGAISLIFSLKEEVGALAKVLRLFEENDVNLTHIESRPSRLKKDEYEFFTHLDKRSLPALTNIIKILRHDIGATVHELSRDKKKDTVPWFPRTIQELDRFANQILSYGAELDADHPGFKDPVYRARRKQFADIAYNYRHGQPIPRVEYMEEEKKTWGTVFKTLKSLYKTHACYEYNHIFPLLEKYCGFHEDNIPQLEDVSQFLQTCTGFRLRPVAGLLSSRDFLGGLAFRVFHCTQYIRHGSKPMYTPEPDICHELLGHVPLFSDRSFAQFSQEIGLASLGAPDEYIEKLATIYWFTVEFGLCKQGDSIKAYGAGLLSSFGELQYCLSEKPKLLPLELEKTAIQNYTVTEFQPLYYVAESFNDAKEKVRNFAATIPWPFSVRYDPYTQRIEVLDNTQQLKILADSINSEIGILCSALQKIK
Assay: Cell Based Phenylalanine Flux Assay
Details: A375 cells expressing human R408W PAH; 24 hrs compound incubation; 13C-Tyrosine by LC-MS; average where tested multiple times; read-out: AC50

Compound | AC50 [µM]
O=C(c1cnc(-c2ccccn2)s1)N1CCc2[nH]cnc2C1c1ccc2ccccc2n1 (stereo in doubt) [Example 1, (R)-(2-(pyridin-2-yl)thiazol-5-yl)(4-(quinolin-2-yl)-6,7-dihydro-1H-imidazo[4,5-c]pyridin-5(4H)-yl)methanone] | < 0.5
O=C(c1cnc(-c2ccccn2)s1)N1CCc2[nH]cnc2C1c1ccc2ccccc2n1 (stereo in doubt) [Example 2, (S)-(2-(pyridin-2-yl)thiazol-5-yl)(4-(quinolin-2-yl)-6,7-dihydro-1H-imidazo[4,5-c]pyridin-5(4H)-yl)methanone] | 1 to 5
CC(C)(C)c1ncc(C(=O)N2CCc3[nH]cnc3C2c2ccc3ccccc3n2)s1 (stereo in doubt) [Example 3, (R)-(2-(tert-butyl)thiazol-5-yl)(4-(quinolin-2-yl)-6,7-dihydro-1H-imidazo[4,5-c]pyridin-5(4H)-yl)methanone] | < 0.5
CC(C)(C)c1ncc(C(=O)N2CCc3[nH]cnc3C2c2ccc3ccccc3n2)s1 (stereo in doubt) [Example 4, (S)-(2-(tert-butyl)thiazol-5-yl)(4-(quinolin-2-yl)-6,7-dihydro-1H-imidazo[4,5-c]pyridin-5(4H)-yl)methanone] | > 5
O=C(c1cncs1)N1CCc2[nH]cnc2C1c1ccc2ccccc2n1 (stereo in doubt) [Example 5, (R)-(4-(quinolin-2-yl)-6,7-dihydro-1H-imidazo[4,5-c]pyridin-5(4H)-yl)(thiazol-5-yl)methanone] | 0.5 to 1
O=C(c1cncs1)N1CCc2[nH]cnc2C1c1ccc2ccccc2n1 (stereo in doubt) [Example 6, (S)-(4-(quinolin-2-yl)-6,7-dihydro-1H-imidazo[4,5-c]pyridin-5(4H)-yl)(thiazol-5-yl)methanone] | > 5
Cc1nc(C(C)(C)C)oc1C(=O)N1CCc2[nH]cnc2C1c1ccc2ccccc2n1 (stereo in doubt) [Example 7, (R)-(2-(tert-butyl)-4-methyloxazol-5-yl)(4-(quinolin-2-yl)-6,7-dihydro-1H-imidazo[4,5-c]pyridin-5(4H)-yl)methanone] | 0.5 to 1
O=C(c1nnc(C2CC2)o1)N1CCc2[nH]cnc2C1c1ccc2ccccc2n1 (stereo in doubt) [Example 9, (R)-(5-cyclopropyl-1,3,4-oxadiazol-2-yl)(4-(quinolin-2-yl)-6,7-dihydro-1H-imidazo[4,5-c]pyridin-5(4H)-yl)methanone] | 0.5 to 1
O=C(c1nnc(C2CC2)o1)N1CCc2[nH]cnc2C1c1ccc2ccccc2n1 (stereo in doubt) [Example 10, (S)-(5-cyclopropyl-1,3,4-oxadiazol-2-yl)(4-(quinolin-2-yl)-6,7-dihydro-1H-imidazo[4,5-c]pyridin-5(4H)-yl)methanone] | 1 to 5
O=C(c1nnc(-c2ccc(F)cc2)o1)N1CCc2[nH]cnc2C1c1ccc2ccccc2n1 (stereo in doubt) [Example 11, (R)-(5-(4-fluorophenyl)-1,3,4-oxadiazol-2-yl)(4-(quinolin-2-yl)-6,7-dihydro-1H-imidazo[4,5-c]pyridin-5(4H)-yl)methanone] | < 0.5
CC(C)(F)c1ncc(C(=O)N2CCc3[nH]cnc3C2c2ccc3ccccc3n2)s1 (stereo in doubt) [Example 15, (R)-(2-(2-fluoropropan-2-yl)thiazol-5-yl)(4-(quinolin-2-yl)-6,7-dihydro-1H-imidazo[4,5-c]pyridin-5(4H)-yl)methanone] | 0.5 to 1
CC(C)(F)c1ncc(C(=O)N2CCc3[nH]cnc3C2c2ccc3ccccc3n2)s1 (stereo in doubt) [Example 16, (S)-(2-(2-fluoropropan-2-yl)thiazol-5-yl)(4-(quinolin-2-yl)-6,7-dihydro-1H-imidazo[4,5-c]pyridin-5(4H)-yl)methanone] | > 5
CC(C)(F)c1ncc(C(=O)N2CCc3[nH]cnc3C2c2ccc3ccccc3n2)o1 (stereo in doubt) [Example 17, (R)-(2-(2-fluoropropan-2-yl)oxazol-5-yl)(4-(quinolin-2-yl)-6,7-dihydro-1H-imidazo[4,5-c]pyridin-5(4H)-yl)methanone] | < 0.5
Fc1ccc(-c2nnc(N3CCc4[nH]cnc4C3c3ccc4ccccc4n3)o2)cc1 (stereo in doubt) [Example 19, (S)-2-(4-fluorophenyl)-5-(4-(quinolin-2-yl)-6,7-dihydro-1H-imidazo[4,5-c]pyridin-5(4H)-yl)-1,3,4-oxadiazole] | > 5
Fc1ccc(-c2nnc(N3CCc4[nH]cnc4C3c3ccc4ccccc4n3)o2)cc1 (stereo in doubt) [Example 20, (R)-2-(4-fluorophenyl)-5-(4-(quinolin-2-yl)-6,7-dihydro-1H-imidazo[4,5-c]pyridin-5(4H)-yl)-1,3,4-oxadiazole] | 0.5 to 1
Cc1nc(C(C)(C)F)oc1C(=O)N1CCc2[nH]cnc2C1c1ccc2ccccc2n1 (stereo in doubt) [Example 21, (S)-(2-(2-fluoropropan-2-yl)-4-methyloxazol-5-yl)(4-(quinolin-2-yl)-6,7-dihydro-1H-imidazo[4,5-c]pyridin-5(4H)-yl)methanone] | > 5
Cc1nc(C(C)(C)F)oc1C(=O)N1CCc2[nH]cnc2C1c1ccc2ccccc2n1 (stereo in doubt) [Example 22, (R)-(2-(2-fluoropropan-2-yl)-4-methyloxazol-5-yl)(4-(quinolin-2-yl)-6,7-dihydro-1H-imidazo[4,5-c]pyridin-5(4H)-yl)methanone] | < 0.5
O=C(c1nnc(-c2c(F)cccc2F)o1)N1CCc2[nH]cnc2C1c1ccc2ccccc2n1 (stereo in doubt) [Example 23, (R)-(5-(2,6-difluorophenyl)-1,3,4-oxadiazol-2-yl)(4-(quinolin-2-yl)-6,7-dihydro-1H-imidazo[4,5-c]pyridin-5(4H)-yl)methanone] | < 0.5
Cc1nc(-c2cnn(C)c2)oc1C(=O)N1CCc2[nH]cnc2C1c1ccc2ccccc2n1 (stereo in doubt) [Example 25, (S)-(4-methyl-2-(1-methyl-1H-pyrazol-4-yl)oxazol-5-yl)(4-(quinolin-2-yl)-6,7-dihydro-1H-imidazo[4,5-c]pyridin-5(4H)-yl)methanone] | > 5
CC(C)(O)c1nnc(C(=O)N2CCc3[nH]cnc3C2c2ccc3ccccc3n2)o1 (stereo in doubt) [Example 27, (S)-(5-(2-hydroxypropan-2-yl)-1,3,4-oxadiazol-2-yl)(4-(quinolin-2-yl)-6,7-dihydro-1H-imidazo[4,5-c]pyridin-5(4H)-yl)methanone] | > 5
CC(C)(O)c1nnc(C(=O)N2CCc3[nH]cnc3C2c2ccc3ccccc3n2)o1 (stereo in doubt) [Example 28, (R)-(5-(2-hydroxypropan-2-yl)-1,3,4-oxadiazol-2-yl)(4-(quinolin-2-yl)-6,7-dihydro-1H-imidazo[4,5-c]pyridin-5(4H)-yl)methanone] | 1 to 5
FC(F)(F)c1cnc(N2CCc3[nH]cnc3C2c2ccc3ccccc3n2)nc1 (stereo in doubt) [Example 29, (R)-2-(5-(5-(trifluoromethyl)pyrimidin-2-yl)-4,5,6,7-tetrahydro-1H-imidazo[4,5-c]pyridin-4-yl)quinoline] | < 0.5
FC(F)(F)c1cnc(N2CCc3[nH]cnc3C2c2ccc3ccccc3n2)nc1 (stereo in doubt) [Example 30, (S)-2-(5-(5-(trifluoromethyl)pyrimidin-2-yl)-4,5,6,7-tetrahydro-1H-imidazo[4,5-c]pyridin-4-yl)quinoline] | > 5
Cc1nc(-c2ccccn2)oc1C(=O)N1CCc2[nH]cnc2C1c1ccc2ccccc2n1 (stereo in doubt) [Example 31, (R)-(4-methyl-2-(pyridin-2-yl)oxazol-5-yl)(4-(quinolin-2-yl)-6,7-dihydro-1H-imidazo[4,5-c]pyridin-5(4H)-yl)methanone] | 0.5 to 1
Cc1nc(-c2ccccn2)oc1C(=O)N1CCc2[nH]cnc2C1c1ccc2ccccc2n1 (stereo in doubt) [Example 32, (S)-(4-methyl-2-(pyridin-2-yl)oxazol-5-yl)(4-(quinolin-2-yl)-6,7-dihydro-1H-imidazo[4,5-c]pyridin-5(4H)-yl)methanone] | > 5
O=C(c1nnc(-c2ccc(F)cn2)o1)N1CCc2[nH]cnc2C1c1ccc2ccccc2n1 (stereo in doubt) [Example 33, (R)-(5-(5-fluoropyridin-2-yl)-1,3,4-oxadiazol-2-yl)(4-(quinolin-2-yl)-6,7-dihydro-1H-imidazo[4,5-c]pyridin-5(4H)-yl)methanone] | 1 to 5
O=C(c1nnc(-c2ccc(F)cn2)o1)N1CCc2[nH]cnc2C1c1ccc2ccccc2n1 (stereo in doubt) [Example 34, (S)-(5-(5-fluoropyridin-2-yl)-1,3,4-oxadiazol-2-yl)(4-(quinolin-2-yl)-6,7-dihydro-1H-imidazo[4,5-c]pyridin-5(4H)-yl)methanone] | > 5
Cc1nc(C2CC2)oc1C(=O)N1CCc2[nH]cnc2C1c1ccc2ccccc2n1 (stereo in doubt) [Example 35, (R)-(2-cyclopropyl-4-methyloxazol-5-yl)(4-(quinolin-2-yl)-6,7-dihydro-1H-imidazo[4,5-c]pyridin-5(4H)-yl)methanone] | < 0.5
Cc1nc(C2CC2)oc1C(=O)N1CCc2[nH]cnc2C1c1ccc2ccccc2n1 (stereo in doubt) [Example 36, (S)-(2-cyclopropyl-4-methyloxazol-5-yl)(4-(quinolin-2-yl)-6,7-dihydro-1H-imidazo[4,5-c]pyridin-5(4H)-yl)methanone] | > 5
